Assay results taken from publication PMC10778758, “Dithioethanol (DTE)-Conjugated Deoxyribose Cyclic Dinucleotide Prodrugs (DTE-dCDNs) as STING Agonist” (International Journal of Molecular Sciences, 2023).

What was measured:
[1] = In vitro serum stability assay in 20% fetal bovine serum; assay type: in vitro ADME; conditions: 100 μM, 20% FBS, 37 °C
Procedure: In vitro serum stability assay. Each compound (100 μM) was incubated at 37 °C in the reaction buffer including 20% fetal bovine serum (FBS, GIBCO, Thermo Fisher Scientific, Waltham, MA, USA), 10 mM PBS (pH 7.4), and 1 mM MgCl2. At various times, aliquots of the reaction mixture were collected and stopped by adding 50 μL MeCN and diluted with 50 μL water. The reaction mixture was then centrifuged at 10,000 rpm for 5 min, leaving 100 μL supernatant for the HPLC assay. An amount of 10 μL of each aliquot was injected directly into HPLC (Agilent 1260 Infinity HPLC equipped with a UV detector; column Agilent ZORABX SB-C18 5 μm [4.6 × 150 mm; detection at 254 nm; column temperature 25 °C] for analysis. Amounts of 10 mM TEAA buffer (solvent A) and MeCN (solvent B) were used as the mobile phase with a flow rate of 1 mL/min. The gradient was set as the following: 0–2 min: 98% A/2% B; 2–6 min: 98% A/2% B to 100% B; 6–10 min: 100% B; 10–13 min: 100% B to 98% A/2% B; 13–15 min: 98% A/2% B. The % remaining of the test compounds after incubation in the serum was then calculated.
Figure 4 Parent dCDN of DTE-dCDN prodrug 9 retained a high serum stability. The serum stability analysis of (a) prodrug 9, (b) 3′,3′-c-di-dAMP, (c) 2′,3′-cGAMP and (d) ADU-S100 were determined in 20% FBS. Each compound (100 μM) was incubated in 20% FBS at 37 °C. At various times (0, 2, 4, 8, 12, 24, 48, 72 h), aliquots of the reaction mixture were analyzed with HPLC at 254 nm. The % remaining of test compounds after incubation in serum was calculated.

THP-1 cells = assay: Uptake of DTE-dCDN prodrug, intracellular levels by LC/MS/MS; conditions: THP-1 cells treated with 100 μM 3′,3′-c-di-dAMP, within 6 h
Procedure: Uptake of DTE-dCDN Prodrug. THP-1 cells were seeded at a concentration of 5 × 10^6 cells/mL into a 12-well plate. After 16 h of incubation at 37 °C in a 5% CO2 atmosphere, the compounds were added to cell cultures and the cells were collected at time points of 1 h, 2 h, 4 h, 6 h, 8 h, 12 h, and 24 h by centrifugation for 1 min at 1000× g. The media was removed completely, and the cells were washed twice with 800 μL of ice-cold PBS before being lysed with 400 μL ice-cold 70% methanol. Lysates were incubated overnight at −20 °C and then centrifuged for 20 min at 13,000× g to remove cellular debris. The supernatant was analyzed via LC/MS/MS (Agilent 1290 Infinity II/6470A)
(a) The intracellular concentration of the prodrug 9 in THP-1 cells. (b) The intracellular concentration of the parent dCDN (3′,3′-c-di-dAMP) in THP-1 cells. THP-1 cells were treated with 10 μM prodrug 9 or 100 μM parent dCDN (3′,3′-c-di-dAMP) for the indicated period of time (1, 2, 4, 6, 8, 12, 24 h), and the intracellular concentration of the metabolites in cellular extracts was determined with liquid chromatograph MS/MS analysis.

THP1-Lucia cells [2] = assay: THP1-Lucia cell-based luciferase reporter assay; conditions: 24 h
Procedure: THP1-Lucia cell-based reporter assay. THP1-Lucia cells were seeded into a 24-well plate at a density of 5 × 10^4 cells/well. […] Finally, the medium was collected to determine the luciferase activity using QUANTI-Luc (InvivoGen, San Diego, CA, USA) according to the manufacturer′s instruction to calculate the EC50 values of the tested compounds. The results are expressed as the mean ± SD from three independent experiments. Emax values were normalized to the response induced by 2′,3′-cGAMP in each assay and expressed as a mean percentage ± SD from three independent experiments. The THP1-Lucia cell line was obtained from Prof. Junmin Quan from Peking University (Beijing, China).
Figure 5 The luciferase-based assay in the THP1-Lucia reporter cell line. (a) EC50 values represent the mean (±SD) of three independent experiments. (b) Emax values represent the mean (±SD) of three independent experiments.

CT-26 cells = assay: RT-qPCR of IFN-β mRNA in CT-26 cells; assay type: cell-based; conditions: CT-26, prodrug 9 and ADU-S100 10 μM, CDNs 100 μM, 4 h
Procedure: Real-time quantitative PCR (RT-qPCR). The mRNA expression levels of diverse cytokines were measured using quantitative RT-PCR (RT-qPCR) assays. THP-1 cells or CT26 cells were incubated with the compounds for 4 h, subsequently harvested for RNA isolation according to the manufacturer’s instructions of RNApure Tissue&Cell Kit (DNase I) (CWBIO, Cambridge, MA, USA catalogue no. CW0560S). Next, 1 μg RNA was reversely transcribed to cDNA by TransScript All-in-One First-Strand cDNA Synthesis SuperMix for qPCR (One-Step gDNA Removal) (TransGen, Beijing, China). To examine the mRNA levels, real-time PCR was performed in a CFX96 Real-Time PCR system (Bio-RAD, Hercules, CA, USA) using PerfectStart Green qPCR Super Mix (TransGen) and primers (Sangon Biotech, Shanghai, China). The expression level was calculated according to the formula (2^−∆∆Ct) using the GAPDH or β-actin as the internal reference gene and the relative gene expression fold was normalized to the DMSO-treated cells. The THP-1 and CT26 cell lines were obtained from American Type Culture Collection (ATCC, Manassas, VA, USA). […]
expression levels of IFN-β were assessed by real-time quantitative PCR (qPCR) under the treatment of prodrug 9 (10 μM), 3′,3′-c-di-dAMP (100 μM), 2′,3′-cGAMP (100 μM) and ADU-S100 (10 μM) for 4 h.
Figure S3. […]
levels of IFN-β were assessed by an enzyme-linked immunosorbent assay (ELISA). […]

THP1-Lucia cells [3] = assay: Luciferase activity in THP1-Lucia cells pretreated with STING or TBK1 inhibitor; assay type: cell-based; conditions: inhibitor 10 μM pretreated 1 h, prodrug 9 10 μM, 24 h
Procedure: The endogenous 2′,3′-cGAMP was set as the positive control group. H-151 [26] and BX795 [27] were selected to use as the STING inhibitor and TBK1 inhibitor, respectively.
Figure 6 Prodrug 9 activated the IFN-β promoter responsive luciferase expression through STING signaling pathway. Prodrug 9 (10 μM) and 2′,3′-cGAMP (10 μM) were added to THP1-Lucia cells alone or pretreated with vehicle or H-151 (10 μM), BX795 (10 μM) for 1 h, respectively. The luciferase activity was measured with Quanti-Luc reagent via a 24 h incubation at 37 °C. Data are presented as mean ± SD, n = 3.

Structure (SMILES)	T1/2 (half-life period) [1]	degraded at 72 h [1]	effect on induction of luciferase expression by prodrug 9 (THP1-Lucia cells [3])	other results
Nc1nc2c(ncn2[C@@H]2O[C@@H]3COP(=O)(O)O[C@H]4[C@@H](O)[C@H](n5cnc6c(N)ncnc65)O[C@@H]4COP(=O)(O)O[C@@H]2[C@@H]3O)c(=O)[nH]1 [2′,3′-cGAMP]	31 h	80%	–	–
Nc1ncnc2c1ncn2[C@H]1C[C@@H]2OP(=O)(O)OC[C@H]3O[C@@H](n4cnc5c(N)ncnc54)C[C@@H]3OP(=O)(O)OC[C@H]2O1 [3′,3′-c-di-dAMP]	> 72 h	did not show any degradation	–	intracellular levels of the parent dCDN 3′,3′-c-di-dAMP (THP-1 cells): not detectable; EC50 (THP1-Lucia cells [2]): 41.3 µM
Nc1ncnc2c1ncn2[C@@H]1O[C@@H]2COP(=O)([S-])O[C@@H]3[C@H](O)[C@@H](COP([O-])(=S)O[C@H]2[C@H]1O)O[C@H]3n1cnc2c(N)ncnc21.[Na+].[Na+] (stereo partly shown) [ADU-S100, reference compound]	67 h	–	–	induction of IFN-β transcription in CT-26 cells (CT-26 cells): no significant induction
O=C(NCCCNc1nc(Nc2cccc(NC(=O)N3CCCC3)c2)ncc1I)c1cccs1 [BX795]	–	–	could block the induction of the luciferase expression	–
CCc1ccc(NC(=O)Nc2c[nH]c3ccccc23)cc1 [H-151]	–	–	could block the induction of the luciferase expression	–
